Measured values as given in the supplement of paper PMC10307832.

How the values were obtained:
Assay in all cases: relative viability (nuclei count vs DMSO), 5 days (fraction); higher = more cells survive
COR-L23 = tested on: COR-L23
Method in brief: (§1)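 Relative viability is defined as nuclei in treated wells over nuclei in vehicle wells. Duplicate plates were run and medians reported. Lung cancer cell lines in 1536-well plates were dosed by pin tool one day after seeding, with one drug or with a fixed anchor-drug dose plus five library-drug doses (not always all listed) in √10 steps, and nuclei were counted after 5 days.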

NCI-H727 = tested on: NCI-H727
Method in brief: as §1

HCC-366 = tested on: HCC-366
Method in brief: as §1

NCI-H2087 = tested on: NCI-H2087
Method in brief: as §1

HCC-827 = tested on: HCC-827
Method in brief: as §1

NCI-H1993 = tested on: NCI-H1993
Method in brief: as §1

SK-MES-1 = tested on: SK-MES-1
Method in brief: as §1

BEN = tested on: BEN
Method in brief: as §1

HCC-44 = tested on: HCC-44
Method in brief: as §1

NCI-H2126 = tested on: NCI-H2126
Method in brief: as §1

PC-14 = tested on: PC-14
Method in brief: as §1

CAL-12T = tested on: CAL-12T
Method in brief: as §1

HOP-62 = tested on: HOP-62
Method in brief: as §1

HARA = tested on: HARA
Method in brief: as §1

HCC-15 = tested on: HCC-15
Method in brief: as §1

NCI-H2170 = tested on: NCI-H2170
Method in brief: as §1

COR-L 105 = tested on: COR-L 105
Method in brief: as §1

PC-3 [JPC-3] = tested on: PC-3 [JPC-3]
Method in brief: as §1

LU99A = tested on: LU99A
Method in brief: as §1

LXF-289 = tested on: LXF-289
Method in brief: as §1

LCLC-97TM1 = tested on: LCLC-97TM1
Method in brief: as §1

LC-2-ad = tested on: LC-2-ad
Method in brief: as §1

NCI-H2009 = tested on: NCI-H2009
Method in brief: as §1

O=c1[nH]c2ccccc2n1C1CCN(CCCC(c2ccc(F)cc2)c2ccc(F)cc2)CC1 [Pimozide] + Cc1cc(Nc2cc(N3CCN(C)CC3)nc(Sc3ccc(NC(=O)C4CC4)cc3)n2)n[nH]1 [Tozasertib] (partner 0.1 µM)
relative viability (COR-L23; first compound 0.08 µM): 0.194
relative viability (COR-L23; first compound 0.253 µM): 0.183
relative viability (COR-L23; first compound 0.8 µM): 0.191
relative viability (COR-L23; first compound 2.53 µM): 0.153
relative viability (COR-L23; first compound 8 µM): 0.185
relative viability (NCI-H727; first compound 0.08 µM): 0.734
relative viability (NCI-H727; first compound 0.253 µM): 0.694
relative viability (NCI-H727; first compound 0.8 µM): 0.509
relative viability (NCI-H727; first compound 2.53 µM): 0.65
relative viability (NCI-H727; first compound 8 µM): 0.496
relative viability (HCC-366; first compound 0.08 µM): 0.079
relative viability (HCC-366; first compound 0.253 µM): 0.0803
relative viability (HCC-366; first compound 0.8 µM): 0.142
relative viability (HCC-366; first compound 2.53 µM): 0.0868
relative viability (HCC-366; first compound 8 µM): 0.0997
relative viability (NCI-H2087; first compound 0.08 µM): 0.262
relative viability (NCI-H2087; first compound 0.253 µM): 0.232
relative viability (NCI-H2087; first compound 2.53 µM): 0.233
relative viability (NCI-H2087; first compound 8 µM): 0.195
relative viability (HCC-827; first compound 0.253 µM): 0.387
relative viability (HCC-827; first compound 0.8 µM): 0.368
relative viability (HCC-827; first compound 2.53 µM): 0.385
relative viability (HCC-827; first compound 8 µM): 0.405
relative viability (NCI-H1993; first compound 0.08 µM): 0.555
relative viability (NCI-H1993; first compound 0.253 µM): 0.567
relative viability (NCI-H1993; first compound 0.8 µM): 0.612
relative viability (NCI-H1993; first compound 2.53 µM): 0.568
relative viability (NCI-H1993; first compound 8 µM): 0.58
relative viability (SK-MES-1; first compound 0.08 µM): 0.821
relative viability (SK-MES-1; first compound 0.253 µM): 0.822
relative viability (SK-MES-1; first compound 0.8 µM): 0.873
relative viability (SK-MES-1; first compound 2.53 µM): 0.824
relative viability (SK-MES-1; first compound 8 µM): 0.815
relative viability (BEN; first compound 0.08 µM): 0.465
relative viability (BEN; first compound 0.253 µM): 0.548
relative viability (BEN; first compound 0.8 µM): 0.427
relative viability (BEN; first compound 2.53 µM): 0.471
relative viability (BEN; first compound 8 µM): 0.422
relative viability (HCC-44; first compound 0.08 µM): 1.16
relative viability (HCC-44; first compound 0.253 µM): 0.918
relative viability (HCC-44; first compound 0.8 µM): 0.811
relative viability (HCC-44; first compound 2.53 µM): 0.499
relative viability (HCC-44; first compound 8 µM): 0.983
relative viability (NCI-H2126; first compound 0.08 µM): 0.861
relative viability (NCI-H2126; first compound 0.253 µM): 0.787
relative viability (NCI-H2126; first compound 0.8 µM): 0.756
relative viability (NCI-H2126; first compound 2.53 µM): 0.817
relative viability (NCI-H2126; first compound 8 µM): 0.772
relative viability (PC-14; first compound 0.253 µM): 0.539
relative viability (PC-14; first compound 0.8 µM): 0.481
relative viability (PC-14; first compound 2.53 µM): 0.519
relative viability (PC-14; first compound 8 µM): 0.552
relative viability (CAL-12T; first compound 0.08 µM): 0.308
relative viability (CAL-12T; first compound 0.253 µM): 0.312
relative viability (CAL-12T; first compound 0.8 µM): 0.308
relative viability (CAL-12T; first compound 2.53 µM): 0.318
relative viability (CAL-12T; first compound 8 µM): 0.427
relative viability (HOP-62; first compound 0.08 µM): 0.344
relative viability (HOP-62; first compound 0.253 µM): 0.353
relative viability (HOP-62; first compound 2.53 µM): 0.331
relative viability (HOP-62; first compound 8 µM): 0.321
relative viability (HARA; first compound 0.253 µM): 0.107
relative viability (HARA; first compound 0.8 µM): 0.111
relative viability (HARA; first compound 2.53 µM): 0.0907
relative viability (HARA; first compound 8 µM): 0.123
relative viability (HCC-15; first compound 0.08 µM): 0.403
relative viability (HCC-15; first compound 0.253 µM): 0.365
relative viability (HCC-15; first compound 0.8 µM): 0.322
relative viability (HCC-15; first compound 2.53 µM): 0.292
relative viability (HCC-15; first compound 8 µM): 0.201
relative viability (NCI-H2170; first compound 0.08 µM): 0.752
relative viability (NCI-H2170; first compound 0.253 µM): 0.734
relative viability (NCI-H2170; first compound 0.8 µM): 0.651
relative viability (NCI-H2170; first compound 2.53 µM): 0.653
relative viability (NCI-H2170; first compound 8 µM): 0.55
relative viability (COR-L 105; first compound 0.253 µM): 0.327
relative viability (COR-L 105; first compound 0.8 µM): 0.367
relative viability (COR-L 105; first compound 2.53 µM): 0.301
relative viability (COR-L 105; first compound 8 µM): 0.239
relative viability (PC-3 [JPC-3]; first compound 0.08 µM): 0.557
relative viability (PC-3 [JPC-3]; first compound 0.253 µM): 0.875
relative viability (PC-3 [JPC-3]; first compound 0.8 µM): 0.754
relative viability (PC-3 [JPC-3]; first compound 2.53 µM): 0.771
relative viability (PC-3 [JPC-3]; first compound 8 µM): 0.788
relative viability (LU99A; first compound 0.08 µM): 0.244
relative viability (LU99A; first compound 0.253 µM): 0.277
relative viability (LU99A; first compound 0.8 µM): 0.27
relative viability (LU99A; first compound 2.53 µM): 0.304
relative viability (LU99A; first compound 8 µM): 0.256
relative viability (LXF-289; first compound 0.08 µM): 0.208
relative viability (LXF-289; first compound 0.253 µM): 0.167
relative viability (LXF-289; first compound 0.8 µM): 0.173
relative viability (LXF-289; first compound 2.53 µM): 0.14
relative viability (LXF-289; first compound 8 µM): 0.126
relative viability (LCLC-97TM1; first compound 0.08 µM): 0.265
relative viability (LCLC-97TM1; first compound 0.253 µM): 0.212
relative viability (LCLC-97TM1; first compound 0.8 µM): 0.225
relative viability (LCLC-97TM1; first compound 2.53 µM): 0.173
relative viability (LCLC-97TM1; first compound 8 µM): 0.193
relative viability (LC-2-ad; first compound 0.08 µM): 0.442
relative viability (LC-2-ad; first compound 0.253 µM): 0.455
relative viability (LC-2-ad; first compound 0.8 µM): 0.416
relative viability (LC-2-ad; first compound 2.53 µM): 0.385
relative viability (LC-2-ad; first compound 8 µM): 0.35
relative viability (NCI-H2009; first compound 0.08 µM): 0.696
relative viability (NCI-H2009; first compound 0.253 µM): 0.754
relative viability (NCI-H2009; first compound 0.8 µM): 0.683
relative viability (NCI-H2009; first compound 2.53 µM): 0.58
relative viability (NCI-H2009; first compound 8 µM): 0.577
